# Source: patent publication US9556236B1, “Compositions and methods for treating respiratory syncytial virus infection” (priority 2012, dated 2017)
# “Also recorded” adds a separate entry of the source. Positions of bridges follow the written chain, without caps; N, C: chain ends. No end group written: not given here.
# Assays:
# RG RSV [1] = assay: Therapeutic antiviral activity of FMDs in A549 cells infected with RG RSV; assay type: cell-based, respiratory syncytial virus; details: administered 24 h pi, RG RSV low MOI
# Experimental: 25K A549 cells grown in 48-well plates and supplied with DMEM (no serum) were infected with RSV at a 0.1 MOI for 1 h. After washing the viral supernatant, cells were incubated in DMEM (5% FBS, 1% P/S) allowing progression of infection for different time periods (4 and 24 h), however, only 24 h is shown here. At these two time points, cells were treated with a dose of peptides or micelle-peptides containing 5 μM peptide/well. Infection was followed for a period of 48 h through microscopy and quantified through Image J statistical analysis software.
# For testing the efficiency of FMDs, cytotoxicity was measured in A549 cells at different HR2-D peptide concentrations using FM2D and FM3D, respectively (FIG. 10A). EM2 and EM3 represent empty micelle control. A549 cells were infected according to therapeutic conditions, and FMD (6 μM FM2D, 5 μM FM3D) were administered 24 h pi. The images were visualized 48 h pi (FIG. 10B) and the inhibitory efficiency quantified using flow cytometry (FIGS. 10C and 10D). […] FM3D had good inhibitory activity by suppressing the expression of GFP by 65% as compared to the control.
# A2 RSV = assay: RSV titers by plaque assay in HEp-2 cells in presence of peptide, A2 strain; assay type: cell-based, respiratory syncytial virus; details: for inhibition of A2 infection by viral titers: 24-96 h after infection
# Experimental: (§1) Growth and titration of the respiratory syncytial virus (RSV) strains A2, RG RSV (green-fluorescent tag), and rA2 were performed as previously described in the literature.^17,18 RSV was propagated in HEp-2 cells containing 0.1 PFU/cell in T-175 flasks supplied with 7 ml of 2% FBS, OptiMEM (virus yield 10^6-10^7 pfu/ml). Infection was allowed for 2 h. (at 37° C., 5% CO2) and then replaced with fresh media. The infection was allowed to progress until CPE (80-90%), typically happening after 3 days of incubation. Viral suspension was collected and combined with scrapped cells in to a vial and centrifuged at 3200 rpm for 10 min at 4° C. The culture supernatant was collected and mixed with 0.1 volumes of sterile magnesium sulfate (1M). Last, viral supernatant was stored in cryovials and stored in liquid nitrogen tank.^18,19 Viral titers were measured using carboxymethylcellulose plaque assay on HEp-2 cells grown to 80-90% confluency at 5% FBS/DMEM in a 24-well plate (70K cells per well).^17,18,19 Virus particles were visible and quantitated after immunochemistry treatment of the cells with primary anti-RSV F mouse monoclonal [RSV3216 (B016)] (1:1000 dilution) and secondary antibody against primary with HRP conjugate.
# (§2) The effect of inhibitory peptides (HR2-A, HR2-B, HR2-C, HR2-D, HR2-E, HR2-S, HR2-D0, HR2-D1, HR2-D2, HR2-D3, HR2-D4) on RG RSV infection given by prophylactic method was visualized by inverted fluorescence microscopy (Olympus IX371) and quantitated by flow cytometry. For plaque assays, 50K HEp2 cells/well were seeded in 24-well plates and infected with RG RSV (0.1-1 MOI) in the presence of peptides for 1 h. The viral supernatant was removed and a second dose of peptides in methylcellulose/5% FBS was overlaid onto the cells. Plaques were visualized and quantified (3-5 days pi). Cellular uptake was characterized using confocal microscopy and flow cytometry. For confocal imaging, 50K cells (Vero, A549) were placed on a […] and grown overnight before treatment with MPs (5 μM peptide conc./dish) and incubated for 1 h at 37° C. Cells were placed in a live-cell environmental chamber at 37° C. with 5% CO2 and imaged using spinning-disk confocal microscopy (Olympus IX81 confocal microscope). Uptake was quantified by flow cytometry (BD FacsAria analyzer/sorter). Samples for flow cytometry were prepared using 50K cells/well seeded in 24-well plates and grown in DMEM plus 10% FBS and incubated with peptides at a concentration of 5 μM peptide/well for 30 min at 37° C. […] Final cell pellet was suspended in 400 μl of 1×PBS and analyzed for green and/or red content.
# Following the same methodology as for flow, two doses of peptides were used, and virus inoculation was 0.2 MOI. Titers were quantified 24 to 96 h after infection (pi).
# RG RSV [2] = assay: HR2-D peptide series, prophylactic model of infection in Vero cells, GFP by flow cytometry; assay type: cell-based, respiratory syncytial virus; details: for GFP from positive control: prophylactic
# Experimental: (§3) 25K Vero or A549 cells grown in 48-well plates and supplied with DMEM (no serum) were treated with a dose of peptides or micelle-peptides (5 μM peptide/well) for 30 min. previous to infection with RSV. Infection was carried out at a 0.1 MOI and allowed in the cell culture for 1 h. After removal of viral supernatant, the cells were treated with a second dose of peptides or peptide-loaded micelles containing 5 μM peptide/well in DMEM (5% FBS, 1% P/S). Infection was followed for a period of 48 h through microscopy and quantified through flow cytometry.
# Infection experiments with the HR2-D series were carried out in Vero cells following a prophylactic model of infection using RG RSV (MOI=0.1) strain. At 48 h after infection, the cells were analyzed for GFP (positive RSV infection) by flow cytometry. […] Compared to HR2-D0, HR2-D1 is about 30% lower. For the activity of the inhibitor peptide HR2-D (˜20% GFP from positive control), as shown by the loss of activity by 1.5 fold for HR2-D2 vs. 2.5 fold for peptide HR2-D1. Moreover, the presence of the one free cysteine which is not forming a disulfide bond might result in destabilizing the whole structure. HR2-D1 and HR2-D2 have a free cysteine residue at position 9 and 32, respectively while HR2-S, HR2-D3 and HR2-D4 contain only one pair of cysteines.
# [3] = Hydrodynamic diameter by dynamic light scattering; assay type: physicochemical; details: DLS, in water
# Experimental: The hydrodynamic radius of functionalized micelles (FMDs), micelle-peptide complexes (MPs), FMP, Cy5-amine-coated micelles and Cy5-HR2-D in water was measured using dynamic light scattering and zeta potential (DLS, Microtrac). Aliquots for DLS were prepared by diluting the stock samples 1:5, passing them through a 0.2 μm syringe-filter and sonicating for 10 min to disrupt aggregation.
# RG RSV [4] = assay: Free peptide and Cy5-labeled MPs, prophylactic model in Vero cells at low and high MOI, flow cytometry; assay type: cell-based, respiratory syncytial virus
# Experimental: as §3
# The effect of inhibitory peptides (HR2-A, HR2-B, HR2-C, HR2-D, HR2-E, HR2-S, HR2-D0, HR2-D1, HR2-D2, HR2-D3, HR2-D4) on RG RSV infection given by prophylactic method was visualized by inverted fluorescence microscopy (Olympus IX371) and quantitated by flow cytometry. […] Plaques were visualized and quantified (3-5 days pi). […] Uptake was quantified by flow cytometry (BD FacsAria analyzer/sorter). […] Final cell pellet was suspended in 400 μl of 1×PBS and analyzed for green and/or red content.
# The hydrodynamic diameter of micelles with surface-conjugated peptides (MPs) was measured and compared to MPs with peptides also in the core (FMPs) (FIG. 6A). […] Subsequently experiments involved using Cy5 labeled peptides conjugated to the micelles and quantifying its activity against RG RSV infection by flow cytometry. […]
# RG RSV [5] = assay: Prophylactic model of RSV infection in HEp2 cells, flow cytometry of GFP, RG RSV; assay type: cell-based, respiratory syncytial virus; details: two doses 5 μM peptide, 0.2 MOI, vs untreated positive control
# Experimental: as §2, with “Cells were placed in a live-cell environmental chamber at 37° C. with 5% CO2 and imaged using spinning-disk confocal microscopy (Olympus IX81 confocal microscope).” left out, “analyzer/sorter).” for “analyzer/sorter). Samples for flow cytometry were prepared using 50K cells/well seeded in 24-well plates and grown in DMEM plus 10% FBS and incubated with peptides at a concentration of 5 μM peptide/well for 30 min at 37° C.”
# (§4) The anti-RSV activity of peptides HR2-S, HR2-E, HR2-A, HR2-B, HR2-C, and HR2-D was tested in vitro following a prophylactic model of RSV infection in HEp2 cells described in the experimental section above. RG and RA2 RSV strains were used to quantify infection by flow and RA2 and A2 strains were used to quantitate the viral titers by immunochemistry. […]
# rgRSV = assay: In vivo model of rgRSV infection and intranasal prophylactic treatment; design: species or system BALB/c mice; details: intranasal 50 μL of 125 μM 1 h before rgRSV 1×10^6 pfu, 24 h post infection, vs empty micelle control
# Experimental: Ten week old BALB/c mice (n=4 per group) were anesthetized and treated intranasally with the indicated HR2D peptide (125 μM in 1.2% DMSO) or packaged in filled micelles or with chitosan nanoparticles and empty micelles control. One hour post reatment, three groups of mice were inoculated with a single dose of rgRSV at 1×10^6 pfu/mouse. Mice were sacrificed at 24 hours post infection and the noses harvested, sectioned, stained with DAPI and imaged for GFP using an Olympus fluorescent microscope.
# To determine if the in vitro anti-RSV activity of HR2D translated to an in vivo context, in vivo testing was performed on mice. HR2D peptide itself, HR2 peptide with filled micelles, empty micelles as control, and HR2D peptide chitosan nanocomplexes were each administered by nasal drop (50 μL of 125 μM solution in 1.2% DMSO) to ten week old BALB/c mice followed by intranasal inoculation with a single dose of rgRSV (1×10^6 pfu) one hour later. Mice were sacrificed 24 hours after infection, and the noses harvested, sectioned, stained with DAPI, and subjected to fluorescence imaging. […] Thus, we find that pretreatment of rgRSV-infected mice with intranasal HR2D peptide markedly decreases nasal infection.
# RSV RA2 = assay: Prophylactic model of RSV infection in HEp2 cells, flow cytometry with FITC-labeled anti-RSV staining, RA2 RSV; assay type: cell-based, respiratory syncytial virus; details: two doses 5 μM peptide, 0.2 MOI
# Experimental: as §2, with “Cells were placed in a live-cell environmental chamber at 37° C. with 5% CO2 and imaged using spinning-disk confocal microscopy (Olympus IX81 confocal microscope).” left out, “analyzer/sorter).” for “analyzer/sorter). Samples for flow cytometry were prepared using 50K cells/well seeded in 24-well plates and grown in DMEM plus 10% FBS and incubated with peptides at a concentration of 5 μM peptide/well for 30 min at 37° C.”
# as §4
# RA2 RSV = assay: RSV titers by plaque assay in HEp-2 cells in presence of peptide, RA2 strain; assay type: cell-based, respiratory syncytial virus; details: 24-96 h after infection
# Experimental: as §1, with “The culture supernatant was collected and mixed with 0.1 volumes of sterile magnesium sulfate (1M).” left out, “(1:1000 dilution) and secondary antibody against primary with HRP conjugate.” left out
# The effect of inhibitory peptides (HR2-A, HR2-B, HR2-C, HR2-D, HR2-E, HR2-S, HR2-D0, HR2-D1, HR2-D2, HR2-D3, HR2-D4) on RG RSV infection given by prophylactic method was visualized by inverted fluorescence microscopy (Olympus IX371) and quantitated by flow cytometry. […] Plaques were visualized and quantified (3-5 days pi). […]
# [6] = RG RSV MOI=0.1, 48 h after infection
sequence,measurement,setting,value
"DACISQVNECINQSLAFICKSDELLCNT (disulfide (positions not given here)) [HR2-D, ID NO.: 7, two disulfides]",control of infection under therapeutic conditions,RG RSV [1],did not control the infection significantly
same,inhibition of A2 infection by viral titers,A2 RSV,greater inhibitory activity
same,decrease in A2 titers,"A2 RSV; 96 h pi, 0.2 MOI","50,000 fold"
same,GFP from positive control,RG RSV [2]; [6],~20%
same,hydrodynamic diameter,[3],2 nm
same,infection blocked compared to positive control,"RG RSV [4]; low MOI (0.1), prophylactic, 24 h pi",85%
same,neutralization (peptide release comparison with controls),RG RSV [4]; virus concentration not stated at this place,70%
same,inhibition of RG RSV infection (GFP expression),RG RSV [5],greatest inhibition of RG RSV infection
same,RSV infection (GFP-positive cells) in nose sections,rgRSV,significantly decreased virus infected cells in the nose
same,RSV infection (GFP-positive cells) in nose sections,rgRSV; listed as HR2D peptide,marked reduction in GFP-positive nasal tissue
"DACISQVNECINQSLAFIRKSDELLCNT (not fully specified (bridges); cysteine pairing not given here) [HR2-D2, ID NO.: 10]",loss of activity relative to HR2-D,"RG RSV [2]; RG RSV MOI=0.1, 48 h",1.5 fold
"DACISQVNEKINQSLAFICKSDELLCNT (not fully specified (bridges); cysteine pairing not given here) [HR2-D1, ID NO.: 9]",GFP lower compared to HR2-D0,"RG RSV [2]; RG RSV MOI=0.1, 48 h",about 30%
same,loss of activity relative to HR2-D,"RG RSV [2]; RG RSV MOI=0.1, 48 h",2.5 fold
"DACISQVNEKINQSLAFIRKSDELLCNT (disulfide 3-26 (inferred)) [HR2-D3, ID NO.: 11]",activity less compared to HR2-S,"RG RSV [2]; RG RSV MOI=0.1, 48 h",3 fold
"DASISQVNECINQSLAFICKSDELLHNT (disulfide 10-19 (inferred)) [HR2-D4, ID NO.: 12]",activity less compared to HR2-S,"RG RSV [2]; RG RSV MOI=0.1, 48 h",2 fold
"DASISQVNEKINQSLAFIRKSDELLHNT (Chemically synthesized anti-RSV peptide) [HR2-D0, ID NO.: 8, control peptide with no cysteine]",inhibitory activity against RSV infection,RG RSV [2]; [6],did not show any inhibitory activity; also recorded: lack of activity
"FDACISQVNECINQSLAFIRKSDELLHNVNAGKST (disulfide 4-11 (inferred)) [HR2-S, ID NO.: 2, one disulfide]",inhibition of A2 infection by viral titers,A2 RSV,did not block A2 infection effectively
same,reduction in A2 viral titers,"A2 RSV; 24 h to 96 h pi, 0.2 MOI, 5 μM peptide",about 0.2 fold
same,GFP from positive control,RG RSV [2]; [6],~38%
same,inhibition of RA2 RSV infection,RSV RA2,most effective inhibitor
same,inhibition of RG RSV infection (GFP expression),RG RSV [5],less GFP expression
same,inhibition of RA2 infection by viral titers,RA2 RSV,did inhibit RA2 infection
